One data set relates to 22rv1. Briefly: Effect on 22rv1 cell viability. As to conditions: for % Cell Viability of 22rv1 at 1 μM: at 1 μM (stated in cell). On the procedure:
(§1) The initial interest was to see the importance of length of side chain on B-3. […] Relative cell growth can be assessed using the MTT (3-(4,5-dimethylthiazol-2-yl)-2,5-diphenyltetrazolium bromide) assay, a colorimetric assay for assessing cell metabolic activity. Cells (1000 to 2000 cells/well) in 150 μL culture medium were seeded in wells of a 96-well plate one day before various concentrations of drugs were added. After continuing culture in the presence of the drugs for the indicated time (3-4 days), 20 μL of 5 mg/mL MTT solution (Sigma-Aldrich) was added into each well. After incubation at 37° C. for 30 min, the culture medium was removed and 100 μL of DMSO was added to dissolve MTT crystals. Plates were shaken for 15 min at room temperature and absorbance at OD590 was read by plate reader.

Another data set concerns LnCap cells. As to the kind of experiment: Effect on LnCap cell viability. As to conditions: for viability at 1 µM: Homo sapiens, LNCaP, read-out: % Cell Viability of LnCap cells at 1 μM, 1 μM. On the procedure: as §1
Data set [1] deals with LNCaP and 22rv1 cell lines. As to the kind of experiment: SAR statements on LNCaP and 22rv1 cell lines. The data set is classed as cell-based. To be noted: LNCaP 1 μM, 22rv1 0.5 μM. How it is done: All compounds were evaluated for their effects on LNCaP and 22rv1 cell lines at 1 and 0.5 μM concentrations, respectively. […] For this purpose different analogues of B-3 with chain length varying from 0 to 4 carbon were synthesized (Table 1). […] In view of the availability of a variety of commercially available benzyl amines over phenyl propyl amines and method to functionalize analogues with 1C chain compound 14c was selected for further modification.

For `O=C(NCc1ccc(Oc2ccc(F)cc2)cc1)c1cccc(-c2cc(O)c3ncccc3c2)c1` [Compound 16d], the “% Cell Viability of 22rv1 at 1 μM” value in the data set with 22rv1 is given as 35.1%. `O=C(NCC1CCCCC1)c1cccc(-c2cc(O)c3ncccc3c2)c1` [Compound 15x]: in the data set with LnCap cells, the “% Cell Viability of LnCap cells at 1 μM” value is recorded as 104% (B-3, ND). Regarding `O=C(NCC1CC1)c1cccc(-c2cc(O)c3ncccc3c2)c1` [Compound 15w], in the data set on LnCap cells, the “% Cell Viability of LnCap cells at 1 μM” value was 60.7%. In the case of `O=C(NCc1ccccc1C(F)(F)F)c1cccc(-c2cc(O)c3ncccc3c2)c1` [Compound 15o], the “% Cell Viability of LnCap cells at 1 μM” value with LnCap cells stood at 94.5%. On to `COc1cc(CNC(=O)c2cccc(-c3cc(O)c4ncccc4c3)c2)cc(OC)c1OC` [Compound 15k], for which the “% Cell Viability of LnCap cells at 1 μM” value in the data set on LnCap cells is 98.1 (B-3, ND) %.

On to `O=C(NCc1ccc(C(=O)N[C@H]2CC[C@H](C(F)(F)F)CC2)cc1)c1cccc(-c2cc(O)c3ncccc3c2)c1` [Compound 17m], for which, in data set [1], the “activity on cell lines, in words (SAR)” value is “much more active than compound 17n”. Besides, the “% Cell Viability of LnCap cells at 1 μM” value with LnCap cells was found to be 24.2%.

As for `COc1ccc(CNC(=O)c2cccc(-c3cc(O)c4ncccc4c3)c2)cc1OC` [Compound 15l], the “% Cell Viability of LnCap cells at 1 μM” value with LnCap cells was 75.7 (B-3, ND) %. As to `O=C(NCCc1ccccc1)c1cccc(-c2cc(O)c3ncccc3c2)c1` [Compound 14b], in data set [1], the “activity on cell lines, in words (SAR)” value was “deterioration of activity”. The “% Cell Viability of 22rv1 at 0.5 μM” value with 22rv1 was 83.7% (B-3,. For the compound `O=C(O)c1ccc(CNC(=O)c2cccc(-c3cc(O)c4ncccc4c3)c2)cc1` [Compound 17a], the viability at 1 µM in the data set on LnCap cells is 97.5%. In the case of `N#Cc1ccc(CNC(=O)c2cccc(-c3cc(O)c4ncccc4c3)c2)cc1` [Compound 15s], in the data set on LnCap cells, the “% Cell Viability of LnCap cells at 1 μM” value is given as 52.8% (B-3, ND).

Regarding `O=C(NCc1ccc(C(=O)NC2CCCC2)cc1)c1cccc(-c2cc(O)c3ncccc3c2)c1` [Compound 17i], the “activity on cell lines, in words (SAR)” value in data set [1] is “loss of activity”. Besides, in the data set with 22rv1, the “% Cell Viability of 22rv1 at 0.5 μM” value is given as 29.8%. Consider `CC(C)CNC(=O)c1ccc(CNC(=O)c2cccc(-c3cc(O)c4ncccc4c3)c2)cc1` [Compound 17f], for which the “activity on cell lines, in words (SAR)” value in data set [1] is on record as “proved useful”. Besides, the “% Cell Viability of 22rv1 at 0.5 μM” value in the data set with 22rv1 is 41.0%. For the compound `O=C(NCc1ccc(Oc2ccc(Cl)cc2)cc1)c1cccc(-c2cc(O)c3ncccc3c2)c1` [Compound 16b], the “% Cell Viability of 22rv1 at 1 μM” value in the data set with 22rv1 turned out to be 33.2%. Turning to `O=C(NCc1ccc(-c2ccc(C(F)(F)F)cc2)cc1)c1cccc(-c2cc(O)c3ncccc3c2)c1` [Compound 16f], the “% Cell Viability of LnCap cells at 1 μM” value in the data set with LnCap cells is listed as 44.2%. For the compound `O=C(NCc1ccc(C(=O)NC2CCCCCC2)cc1)c1cccc(-c2cc(O)c3ncccc3c2)c1` [Compound 17k], the “activity on cell lines, in words (SAR)” value in data set [1] is listed as “loss of activity”. In the data set on 22rv1, the “% Cell Viability of 22rv1 at 0.5 μM” value worked out at 10.8%. Regarding `O=C(NCc1ccc(C(F)(F)F)cc1)c1cccc(-c2cc(O)c3ncccc3c2)c1` [Compound 15m], the “% Cell Viability of LnCap cells at 1 μM” value with LnCap cells is 67.7%.

In the case of `O=C(Nc1ccccc1)c1cccc(-c2cc(O)c3ncccc3c2)c1` [Compound 14d], the “activity on cell lines, in words (SAR)” value in data set [1] was “poor activity”. On to `CC1Cc2ccc(-c3ccc(CNC(=O)c4cccc(-c5cc(O)c6ncccc6c5)c4)cc3)cc2O1` (stereo not drawn) [Compound 16g], for which, in the data set on LnCap cells, the “% Cell Viability of LnCap cells at 1 μM” value came out at 30.0%. On to `O=C(NCc1cccc(O)c1)c1cccc(-c2cc(O)c3ncccc3c2)c1` [Compound 15e], for which the “% Cell Viability of LnCap cells at 1 μM” value in the data set on LnCap cells was determined as 87.9%. Consider `NC(=O)c1ccc(CNC(=O)c2cccc(-c3cc(O)c4ncccc4c3)c2)cc1` [Compound 17b], for which the “activity on cell lines, in words (SAR)” value in data set [1] is “lower activity than B-3”. Moreover, the “% Cell Viability of 22rv1 at 0.5 μM” value in the data set with 22rv1 was 78.4%. `O=C(NCc1ccc(C(F)(F)F)cc1F)c1cccc(-c2cc(O)c3ncccc3c2)c1` [Compound 15r]: in the data set on LnCap cells, the “% Cell Viability of LnCap cells at 1 μM” value is 101%. As for `O=C(NCc1ccc(C(=O)N[C@H]2CC[C@@H](C(F)(F)F)CC2)cc1)c1cccc(-c2cc(O)c3ncccc3c2)c1` [Compound 17n], the “activity on cell lines, in words (SAR)” value in data set [1] is reported as 17m (trans isomer) was much more active than compound 17n. As for `O=C(NCc1ccc(F)cc1)c1cccc(-c2cc(O)c3ncccc3c2)c1` [Compound 15a], in the data set on LnCap cells, the “% Cell Viability of LnCap cells at 1 μM” value was 72.8%.

Take `O=C(NCc1ccc(Oc2ccccc2)cc1)c1cccc(-c2cc(O)c3ncccc3c2)c1` [Compound 16a]: the “activity on cell lines, in words (SAR)” value in data set [1] was “significant improvement of activity over B-3”. In the data set on 22rv1, the “% Cell Viability of 22rv1 at 1 μM” value came out at 29.5%.

As to `O=C(NCc1ccncc1)c1cccc(-c2cc(O)c3ncccc3c2)c1` [Compound 15u], the “% Cell Viability of LnCap cells at 1 μM” value in the data set with LnCap cells turned out to be 70.9%. With `O=C(NCc1cccc(C(F)(F)F)c1)c1cccc(-c2cc(O)c3ncccc3c2)c1` [Compound 15n], the “% Cell Viability of LnCap cells at 1 μM” value in the data set on LnCap cells is recorded as 75.4%. As to `O=C(NCc1ccc(C(=O)Nc2ccc(C(F)(F)F)cc2)cc1)c1cccc(-c2cc(O)c3ncccc3c2)c1` [Compound 17o], the “activity on cell lines, in words (SAR)” value in data set [1] is “significantly lower activities compared to compounds 17l and 17m”. Regarding `COC(=O)c1ccc(CNC(=O)c2cccc(-c3cc(O)c4ncccc4c3)c2)cc1` [Compound 17c], the viability at 1 µM in the data set on LnCap cells was 47.9%. The viability at 0.5 µM with 22rv1 (Homo sapiens, 22Rv1, read-out: % Cell Viability of 22rv1 at 0.5 μM) stood at 12.9%. Turning to `O=C(NCc1cccc(-c2ccc(F)cc2)c1)c1cccc(-c2cc(O)c3ncccc3c2)c1` [Compound 16i], the “% Cell Viability of LnCap cells at 1 μM” value in the data set with LnCap cells is listed as 17.3%. Besides, the “% Cell Viability of 22rv1 at 0.5 μM” value in the data set with 22rv1 came out at 42.01%. `CCCOC(=O)c1ccc(CNC(=O)c2cccc(-c3cc(O)c4ncccc4c3)c2)cc1` [Compound 17e]: in data set [1], the “activity on cell lines, in words (SAR)” value is on record as “better than compound 17c”. Also, in the data set with 22rv1, the “% Cell Viability of 22rv1 at 0.5 μM” value came to 7.9%.

As to `O=C(NCCCCc1ccccc1)c1cccc(-c2cc(O)c3ncccc3c2)c1` [Compound 14a], in data set [1], the “activity on cell lines, in words (SAR)” value is given as “deterioration of activity”.

In the case of `O=C(NCc1cccc(-c2ccccc2)c1)c1cccc(-c2cc(O)c3ncccc3c2)c1` [Compound 16h], in the data set on LnCap cells, the “% Cell Viability of LnCap cells at 1 μM” value is reported as 21.8%. Further, the “% Cell Viability of 22rv1 at 0.5 μM” value with 22rv1 came out at 26.9%. On to `O=C(NCc1ccc(C(=O)NC2CCCCC2)cc1)c1cccc(-c2cc(O)c3ncccc3c2)c1` [Compound 17j], for which the “activity on cell lines, in words (SAR)” value in data set [1] is “significant jump in activity compared to B-3”. Also, the “% Cell Viability of 22rv1 at 0.5 μM” value with 22rv1 is 5.0%.

On to `O=C(NCc1ccccc1O)c1cccc(-c2cc(O)c3ncccc3c2)c1` [Compound 15f], for which the “% Cell Viability of LnCap cells at 1 μM” value in the data set on LnCap cells worked out at 56.9%. With `COc1cccc(CNC(=O)c2cccc(-c3cc(O)c4ncccc4c3)c2)c1` [Compound 15h], the “% Cell Viability of LnCap cells at 1 μM” value with LnCap cells is given as 88.5% (B-3, ND). For `CC(C)NC(=O)c1ccc(CNC(=O)c2cccc(-c3cc(O)c4ncccc4c3)c2)cc1` [Compound 17g], the “activity on cell lines, in words (SAR)” value in data set [1] is “proved useful”. Moreover, the “% Cell Viability of 22rv1 at 0.5 μM” value in the data set on 22rv1 is 41.0%. For the compound `O=C(NCc1ccc(C(=O)c2ccccc2)cc1)c1cccc(-c2cc(O)c3ncccc3c2)c1` [Compound 16k], the “% Cell Viability of LnCap cells at 1 μM” value in the data set with LnCap cells was 26.7 (B-3, ND) %. In addition, the “% Cell Viability of 22rv1 at 0.5 μM” value in the data set with 22rv1 turned out to be 6.4%. `O=C(NCc1cc(C(F)(F)F)cc(C(F)(F)F)c1)c1cccc(-c2cc(O)c3ncccc3c2)c1` [Compound 15p]: the “% Cell Viability of LnCap cells at 1 μM” value with LnCap cells came to 62.5%. Take `CCOC(=O)c1ccc(CNC(=O)c2cccc(-c3cc(O)c4ncccc4c3)c2)cc1` [Compound 17d]: in the data set on 22rv1, the “% Cell Viability of 22rv1 at 0.5 μM” value is 22.7%. Consider `COc1ccc(CNC(=O)c2cccc(-c3cc(O)c4ncccc4c3)c2)cc1` [Compound 15g], for which the “% Cell Viability of LnCap cells at 1 μM” value in the data set with LnCap cells amounted to 68.4%. With `O=C(NCc1ccccc1-c1ccc(CN2CCCC2=O)cc1)c1cccc(-c2cc(O)c3ncccc3c2)c1` [Compound 16j], the “% Cell Viability of LnCap cells at 1 μM” value with LnCap cells is given as 10.9%. Besides, the “% Cell Viability of 22rv1 at 0.5 μM” value with 22rv1 turned out to be 14.3%. In the data set with 22rv1 (compared with B-3), the “inhibition of 22rv1 cells, in words” value is “inhibited 22rv1 cells much better than B-3”. Consider `O=C(NCc1ccc(Oc2ccccc2Cl)cc1)c1cccc(-c2cc(O)c3ncccc3c2)c1` [Compound 16c], for which the “% Cell Viability of 22rv1 at 1 μM” value in the data set with 22rv1 is recorded as 38.1%. On to `CN(C)c1ccc(CNC(=O)c2cccc(-c3cc(O)c4ncccc4c3)c2)cc1` [Compound 15t], for which the “% Cell Viability of LnCap cells at 1 μM” value in the data set on LnCap cells is 66.3%. Also, the “% Cell Viability of 22rv1 at 0.5 μM” value in the data set with 22rv1 worked out at 19.6%. In the case of `O=C(NCc1ccccc1)c1cccc(-c2cc(O)c3ncccc3c2)c1` [Compound 14c], the “activity on cell lines, in words (SAR)” value in data set [1] was “restoration of activity”. Moreover, in the data set on 22rv1, the “% Cell Viability of 22rv1 at 0.5 μM” value was 79.3% (B-3,.

On to `O=C(NCc1cccs1)c1cccc(-c2cc(O)c3ncccc3c2)c1` [Compound 15v], for which the “% Cell Viability of LnCap cells at 1 μM” value in the data set with LnCap cells worked out at 79.8%.

For the origin of these results see patent publication US12378201B2, “Histone demethylase inhibitors for treating cancers” (The Board of Regents of the University of Texas System, priority 2019, dated 2025).
